From the Kinase Knowledgebase extract (Sharma et al. 2016) come the findings set out here.

pIC50: −log10 of the molar value.

Experiment [1] has as its target PIK3CA (human), P42336 [Antiproliferation of PI3K Mutated BT20 Cells]. Nature of the experiment: Cell-Based Assay.
In another experiment the target is PIK3CA (human) (UniProt P42336). Description: Inhibition of PIK3CA Kinase Activity.
PIK3CA (human), sequence (P42336 whole entry, looked up): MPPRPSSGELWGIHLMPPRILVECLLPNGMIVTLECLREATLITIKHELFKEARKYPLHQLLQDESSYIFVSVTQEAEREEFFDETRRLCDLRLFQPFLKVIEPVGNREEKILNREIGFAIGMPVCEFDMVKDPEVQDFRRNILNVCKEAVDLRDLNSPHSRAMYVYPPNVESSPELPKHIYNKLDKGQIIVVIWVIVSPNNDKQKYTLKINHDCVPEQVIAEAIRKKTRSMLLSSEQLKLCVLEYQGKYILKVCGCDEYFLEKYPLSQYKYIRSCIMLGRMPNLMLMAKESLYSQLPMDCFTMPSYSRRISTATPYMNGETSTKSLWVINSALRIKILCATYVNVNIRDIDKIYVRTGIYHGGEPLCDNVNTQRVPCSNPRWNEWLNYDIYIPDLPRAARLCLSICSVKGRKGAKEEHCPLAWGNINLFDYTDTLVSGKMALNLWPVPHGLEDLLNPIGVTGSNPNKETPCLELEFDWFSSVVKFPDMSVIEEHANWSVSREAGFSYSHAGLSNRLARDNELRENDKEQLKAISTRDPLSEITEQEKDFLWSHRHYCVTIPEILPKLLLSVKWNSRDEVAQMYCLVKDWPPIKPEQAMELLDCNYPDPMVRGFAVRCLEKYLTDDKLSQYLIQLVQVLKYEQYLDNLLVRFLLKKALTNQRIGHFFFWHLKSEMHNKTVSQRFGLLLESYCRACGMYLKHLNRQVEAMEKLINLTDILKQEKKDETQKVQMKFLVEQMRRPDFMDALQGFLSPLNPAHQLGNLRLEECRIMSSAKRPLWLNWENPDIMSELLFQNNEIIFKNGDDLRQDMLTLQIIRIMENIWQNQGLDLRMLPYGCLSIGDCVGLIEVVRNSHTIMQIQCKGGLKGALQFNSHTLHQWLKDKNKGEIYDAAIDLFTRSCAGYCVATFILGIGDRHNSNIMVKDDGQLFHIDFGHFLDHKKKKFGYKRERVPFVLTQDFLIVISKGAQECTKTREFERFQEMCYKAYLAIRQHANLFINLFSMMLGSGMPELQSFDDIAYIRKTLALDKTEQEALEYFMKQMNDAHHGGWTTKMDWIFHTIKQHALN

PIK3CA (human), P42336 [Antiproliferation of PI3K Mutated BT20 Cells], sequence (P42336 whole entry, looked up, change not shown): as the sequence (P42336 whole entry, looked up) above

Consider `Cc1nc(N)nc2c1cc(-c1cnc3[nH]ccc3c1)c(=O)n2C1CC1`, for which the results for the negative logarithm of the IC50 (pIC50) (in experiment [1]; against PIK3CA (human)) were 6.86 and 7.77, respectively.

With `CNc1nc(C)c2cc(-c3cnn(CCO)c3)c(=O)n(C3CCCC3)c2n1`, the pIC50 was 6.63 in experiment [1] and 7.62 against PIK3CA (human).

Consider `Cc1nc(N)nc2c1cc(-c1cnn(C)c1)c(=O)n2[C@H]1CC[C@H](O)CC1`, for which the pIC50 in experiment [1] is 6.32; against PIK3CA (human), 7.74.

`CNc1nc(C)c2cc(-c3ccc(Cl)nc3)c(=O)n(C3CCCC3)c2n1`: the negative logarithm of the IC50 (pIC50) in experiment [1] was 6.84; against PIK3CA (human), 7.53.

As to `Cc1nc(N)nc2c1cc(Br)c(=O)n2CC1CCOC1` (stereo not drawn), the pIC50 in experiment [1] is 5.99; against PIK3CA (human) it was 7.03.

With `Cc1nc(N)nc2c1cc(-c1cn[nH]c1)c(=O)n2CC(F)(F)F`, the pIC50 in experiment [1] was 6.63; against PIK3CA (human) it was 6.73.

For the compound `CCNc1nc(C)c2cc(-c3cccc(OC)c3)c(=O)n(C3CCCC3)c2n1`, the results for the pIC50 (in experiment [1]; on PIK3CA (human)) were 5.86 and 6.10, respectively.

Turning to `Cc1nc(N)nc2c1cc(-c1cnc3[nH]ccc3c1)c(=O)n2C1CN(C(=O)OC(C)(C)C)C1`, the pIC50 in experiment [1] was 6.59; against PIK3CA (human), 7.42.

For the compound `Cc1nc(N)nc2c1cc(C(=O)Nc1ccn[nH]1)c(=O)n2C(C)C`, the pIC50 in experiment [1] is 7.52; on PIK3CA (human), 8.54.

Take `CNc1nc(C)c2cc(-c3cnc4[nH]ccc4c3)c(=O)n(C3CCCC3)c2n1`: the values for the pIC50 (in experiment [1]; at PIK3CA (human)) were 8.42 and 9.12, respectively.

Take `COc1ccc(-c2cc3c(C)nc(N)nc3n(C3CCN(C(C)=O)C3)c2=O)cn1` (stereo not drawn): the figures for the pIC50 (in experiment [1]; at PIK3CA (human)) were 6.90 and 8.15, respectively.

For the compound `C#Cc1cc2c(C)nc(N)nc2n(C2CCC2)c1=O`, the pIC50 in experiment [1] was 6.18; against PIK3CA (human), 6.96.

Turning to `CNc1nc(C)c2cc(/C=C/O)c(=O)n(C3CCCC3)c2n1`, the figures for the pIC50 (in experiment [1]; against PIK3CA (human)) were 6.05 and 7.38, respectively.

With `Cc1nc(N)nc2c1cc(Br)c(=O)n2C1CCOC1` (stereo not drawn), the negative logarithm of the IC50 (pIC50) in experiment [1] was 5.78; on PIK3CA (human) it was 6.64.

On to `COc1ccc(-c2cc3c(C)nc(N)nc3n(CCC3CC3)c2=O)cn1`, for which the pIC50 in experiment [1] was 7.03; at PIK3CA (human) it was 7.96.

Turning to `Cc1nc(N)nc2c1cc(-c1cnc(O)nc1)c(=O)n2C1CCOCC1`, the negative-log IC50 (pIC50) in experiment [1] is 5.00; against PIK3CA (human), 6.09.

Consider `COc1ccc(-c2cc3c(C)nc(N)nc3n(C3CN(C(=O)OC(C)(C)C)C3)c2=O)cn1`, for which the results for the pIC50 (in experiment [1]; against PIK3CA (human)) were 6.50 and 7.54, respectively.

`Cc1nc(N)nc2c1cc(-c1c[nH]nn1)c(=O)n2C(C)C`: the results for the pIC50 (in experiment [1]; against PIK3CA (human)) were 6.25 and 7.21, respectively.

As for `Cc1nc(N)nc2c1cc(-c1cncc(N)n1)c(=O)n2C1CCCC1`, the negative logarithm of the IC50 (pIC50) is 7.47 in experiment [1] and 7.70 at PIK3CA (human).

Turning to `CNc1nc(C)c2cc(-c3cnc(N)c(OC[C@H](C)N)n3)c(=O)n(C3CCCC3)c2n1`, the pIC50 was 5.63 in experiment [1] and 6.40 on PIK3CA (human).

Take `CNc1nc(C)c2cc(-c3cn[nH]c3)c(=O)n(C3CCCC3)c2n1`: the pIC50 in experiment [1] was 8.59; at PIK3CA (human), 8.10.

Consider `Cc1nc(N)nc2c1cc(-c1cnc3[nH]ccc3c1)c(=O)n2CC1CCOC1` (stereo not drawn), for which the pIC50 is 7.24 in experiment [1] and 8.55 on PIK3CA (human).

In the case of `CNc1nc(C)c2cc(-c3cn[nH]c3)c(=O)n(CC3CCOC3)c2n1` (stereo not drawn), the negative-log IC50 (pIC50) in experiment [1] is 7.66; against PIK3CA (human), 8.22.

As for `CNc1nc(C)c2cc(-c3cccc(CO)c3)c(=O)n(C3CCCC3)c2n1`, the pIC50 in experiment [1] was 7.83; against PIK3CA (human), 8.32.

Take `CNc1nc(C)c2cc(-c3ccc(OC)nc3)c(=O)[nH]c2n1`: the pIC50 was 5.56 in experiment [1] and 6.34 against PIK3CA (human).

As for `Cc1nc(N)nc2c1cc(-c1cnc3[nH]ccc3c1)c(=O)n2C(C)C`, the pIC50 was 8.17 in experiment [1] and 8.64 on PIK3CA (human).

Consider `COc1ccc(-c2cc3c(C)nc(N)nc3n(C3CCN(C(=O)OC(C)(C)C)C3)c2=O)cn1` (stereo not drawn), for which the pIC50 was 6.76 in experiment [1] and 7.57 on PIK3CA (human).

With `Cc1nc(N)nc2c1cc(-c1ccc(N3CCCC3)nc1)c(=O)n2[C@H]1CC[C@H](O)CC1`, the values for the pIC50 (in experiment [1]; at PIK3CA (human)) were 8.31 and 7.72, respectively.

Regarding `CCNc1nc(C)c2cc(-c3cccc(O)c3)c(=O)n(C3CCCC3)c2n1`, the figures for the pIC50 (in experiment [1]; at PIK3CA (human)) were 8.52 and 9.00, respectively.

Take `COc1ccc(-c2cc3c(C)nc(N)nc3n(CC3CCOCC3)c2=O)cn1`: the pIC50 in experiment [1] was 7.05; against PIK3CA (human), 7.82.

Consider `Cc1nc(N)nc2c1cc(-c1cnc3[nH]ccc3c1)c(=O)n2C1CCC1`, for which the results for the pIC50 (in experiment [1]; against PIK3CA (human)) were 7.92 and 8.70, respectively.

For the compound `Cc1nc(N)nc2c1cc(-c1cccc(CO)c1)c(=O)n2C1CCOCC1`, the pIC50 is 7.48 in experiment [1] and 8.41 against PIK3CA (human).

For the compound `CNc1nc(C)c2cc(-c3cccnc3OC)c(=O)n(C3CCCC3)c2n1`, the pIC50 is 5.45 in experiment [1] and 6.56 on PIK3CA (human).

`CNc1nc(C)c2cc(-c3c[nH]c(C)n3)c(=O)n(C3CCCC3)c2n1`: the values for the negative logarithm of the IC50 (pIC50) (in experiment [1]; on PIK3CA (human)) were 6.74 and 7.17, respectively.

Usually pIC50 stands for −log10 of the IC50, conventionally taken in molar units.
